# Measured values as given in patent US7915302B2, “Crystal forms of pyrrolylheptanoic acid derivatives” (Dong-A Pharm. Co., Ltd., priority 2007, dated 2011).
# Assay: Stability Identification-Content Measurement (HPLC content after storage in HDPE bottle)
# Type: physicochemical
# Protocol: 80 mg of the novel crystalline form of the compound prepared in Example 2 and 80 mg of a standard product with a purity of 99.9% prepared by the process described in Example 2 were accurately weighed, placed in 100 ml volumetric flasks, and dissolved in dimethylformamide. The volumes of the solutions were adjusted to the marked lines of the flasks to prepare test solutions and standard solutions, respectively. Each of the solutions was analyzed by column chromatography under the following conditions: • Column: Zorbax Rx C8 (4.6 mm×250 mm, 5 μm) or its equivalent • Mobile Phase (0.05 M ammonium acetate buffer (pH=5.0)/acetonitrile/tetrahydrofuran) Mobile Phase A: • 0.05 M ammonium acetate buffer (pH=5.0)/acetonitrile/tetrahydrofuran (67/21/12) Mobile Phase B: • 0.05M ammonium acetate buffer (pH=5.0)/acetonitrile/tetrahydrofuran (54/34/12) • Detector: UV absorption spectrophotometer (wavelength: 244 nm) • Flow Rate: 1.0 mL/min. • Column Temperature: 35±2° C. • Storage: in HDPE bottle
# The contents of the compound prepared in Example 2 were quantified by the area under each peak. Variations in the content of the compound were evaluated at room temperature, in a freezer, under accelerated storage conditions and under extreme storage conditions over the periods indicated in Table 6, and the results are shown in Table 6.
substance,measurement,setting,value
"[R—(R*,R*)]-2-(4-fluorophenyl)-β,δ-dihydroxy-5-(1-methylethyl)-3-phenyl-4-[(phenylamino)carbonyl]-1H-pyrrole-1-heptanoic acid hemicalcium salt [Example 2]",content of the compound,"40° C./75% RH (accelerated storage), 1 month",98.82%
same,content of the compound,"40° C./75% RH (accelerated storage), 2 months",98.33%
same,content of the compound,"40° C./75% RH (accelerated storage), 3 months",98.03%
same,content of the compound,"60° C./Dry (extreme storage), 1 month",98.01%
same,content of the compound,"at room temp., 1 month",98.72%
same,content of the compound,"at room temp., 2 months",98.58%
same,content of the compound,"at room temp., 3 months",98.12%
same,content of the compound,"at room temp., 6 months",98.56%
same,content of the compound,"in freezer, 1 month",99.74%
same,content of the compound,"in freezer, 2 months",99.31%
same,content of the compound,"in freezer, 3 months",100.19%
same,content of the compound,"in freezer, 6 months",98.11%
